Measurements reported in patent US9790496B2, “Microrna compounds and methods for modulating MIR-21 activity” (Regulus Therapeutics, Inc., priority 2011, dated 2017).

What was measured:
[1] = system: collagen 1A1 and collagen 3A1 expression in kidney, unilateral ureteral obstruction (UUO) model; assay: UUO model of kidney fibrosis: kidney collagen 1A1 and collagen 3A1 expression by real-time PCR; format: in vivo, mice; conditions: UUO; 20 mg/kg at days -5, -3, +3; kidney at day 10
Description: Unilateral ureteral obstruction (UUO) is a well-established experimental model of renal injury leading to interstitial fibrosis, and thus is used as an experimental model that is reflective of human kidney disease. UUO is induced by surgically ligating a single ureter. As fibrosis is characterized by an increase in collagen, the presence and extent of kidney fibrosis may be determined by measuring collagen content. Both collagen 1A1 (Col 1A1) and collagen 3A1 (Col 3A1) are measured to assess collagen content. Kidney fibrosis may be visualized by staining tissue samples with picro-sirius red to detect increases in collagen content. Kidney fibrosis may also be observed by measuring the amount of hydroxyproline, which is a major component of collagen, in a sample.
The cEt-containing anti-miR-21 compounds found to be active in the luciferase assay were tested in the UUO model of kidney fibrosis. 25919 comprising 2′-MOE and 2′-fluoro modifications is known to inhibit miR-21 activity in vivo and was included as a positive control. Groups of 8 animals each were treated as follows: UUO only, UUO with PBS, or UUO with anti-miR-21 compound. Relative to the day of the UUO procedure, PBS or anti-miR-21 compound was administered at days −3, −1, and +5. Anti-miR-21 compounds were administered at a dose of 20 mg/kg. As the anti-miR compounds were administered prior to the UUO procedure, this dosing regimen is considered a prophylactic treatment. At day 11, animals were sacrificed and kidney was isolated for measurement of collagen expression. Collagen expression was measured by real-time PCR and normalized first to GAPDH and then to the sham control animals. […]

[2] = Ex vivo liver homogenate stability assay (HPLC-TOF MS); conditions: 24 hours, 37° C.; for ex vivo (liver) N %↓: 5 μM oligonucleotide in liver homogenate (50 mg tissue per ml), decrease of full-length compound; for ex vivo (liver) % N-1 / ex vivo (liver) % Endo: 5 μM oligonucleotide in liver homogenate; for ex vivo (liver) % N-1: compound lacking one terminal nucleoside; for ex vivo (liver) % Endo: endonuclease products
[3] = In vivo stability: compound in kidney tissue after administration to mice; conditions: kidney tissue after administration to mice; for in vivo (kidney) N-1(%): compound lacking one terminal nucleoside; for in vivo (kidney) N(%): full-length compound
[4] = system: ischemia reperfusion injury/nephrectomy (IR/Nx) model; assay: Ischemia reperfusion injury/nephrectomy (IR/Nx) model: urinary albumin to creatinine ratio; format: in vivo, mouse
Source text: An ischemia reperfusion injury/nephrectomy (IR/Nx) model is created in the mouse through temporary unilateral clamping of an artery in one kidney, which leads to tubule damage, inflammation, and fibrosis, followed by removal of the second kidney at a later timepoint. In this model, the acute kidney dysfunction phase is useful to test candidate agents for the treatment of acute kidney injury (i.e. up to about the first 5 days), and the later phases of kidney dysfunction are useful to model chronic fibrosis (i.e. after about the first 5 days).
Anti-miR-21 compounds were tested in the IR/Nx model. 25109, a 6-base mismatch to miR-21, was used as a control compound ([…]; where nucleosides not followed by a subscript indicate β-deoxynucleosides; nucleosides followed by a subscript “E” indicate 2′-MOE nucleosides; nucleosides followed by a subscript “S” indicate S-cEt nucleosides; and all internucleoside linkages are phosphorothioate internucleoside linkages).
Unilateral IR was induced for a period of 30 minutes. Treatment groups were as follows: sham IR procedure; IR with PBS administered subcutaneously; IR with mismatched control 25109 administered subcutaneously at a dose of 20 mg/kg; IR with anti-miR-21 compound 25070 administered subcutaneously at a dose of 20 mg/kg; and IR with anti-miR-21 compound 25923 administered subcutaneously at a dose of 20 mg/kg. PBS or anti-miR was administered on days 2, 3, 4, and 8 following IR. On day 8, the healthy kidney was removed by nephrectomy from each animal, and animals were sacrificed on day 9. Just prior to sacrifice, urine was collected by direct bladder puncture.
Urinary albumin to creatinine ratio was measured in the urine from each mouse. […] The geometric mean of the albumin to creatinine ratio in each group of mice was 16 μgAlb/mgCr (nephrectomy-only control), 127 μgAlb/mgCr (IR/Nx, PBS control), 140 μgAlb/mgCr (IR/Nx, 25109 control), 40 μgAlb/mgCr (IR/Nx, 25070), and 31 μgAlb/mgCr (IR/Nx, 25923). Blood urea nitrogen and serum creatinine levels were similar across all IR/Nx mice, and were elevated relative to nephrectomy-only control mice (data not shown).

[5] = system: miR-21; assay: miR-21 luciferase sensor assay in Hela cells; format: cell-based
Description: The compounds were assessed for miR-21 inhibitory activity in a luciferase assay. A microRNA luciferase sensor construct was engineered using pGL3-MCS2 (Promega). The construct was introduced into Hela cells to test the ability of anti-miR compounds to inhibit activity of miR-21. In this assay, miR-21 present in the Hela cells binds to its cognate site(s) in the luciferase sensor construct, and suppresses luciferase expression. When the appropriate anti-miR is introduced into the cells, it binds to miR-21 and relieves suppression of luciferase expression. Thus, in this assay anti-miRs that are effective inhibitors of miR-21 expression will cause an increase in luciferase expression.
Day 1: Hela cells (ATCC), stably transfected with a luciferase construct engineered to contain a sequence complementary of miR-21, were seeded in T-170 flasks (BD Falcon) at 3.5*10^6 cells/flask. Hela cells were grown in Dulbecco's Modified Eagle Medium with High Glucose (Invitrogen).
Day 2: Each flask of Hela cells was transfected with 0.5 ug of a phRL sensor plasmid (Promega) expressing Renilla to be used in normalization. Hela cells were transfected using 20 ul Lipofectamine 2000/flask (Invitrogen). After 4 hours of transfection, cells were washed with PBS and trypsinized. Hela cells were plated at 40 k/well in 24 well plates (BD Falcon) and left overnight.
Day 3: Hela cells were transfected with anti-miRs using Lipofectin (Invitrogen) at 2.5 ul Lipofectin/100 nM ASO/ml Opti-MEM I Reduced Serum Medium (Invitrogen) for 4 hours. After ASO transfection, Hela cells were refed with Dulbecco's Modified Eagle Medium with High Glucose (Invitrogen).
Day 4: Hela cells are passively lysed and luciferase activity measured using the Dual-Luciferase Reporter Assay System (Promega).
The luciferase assay was performed to test the ability of anti-miRs with the nucleoside patterns described herein to inhibit the activity of miR-21. Results were compared to a ‘mock’ treatment, in which cells received no anti-miR treatment. The experiment was repeated and results of two experimental replicates are shown in the following Table B, as the luciferase value normalized to beta-galactosidase activity.
The luciferase assay was performed as described herein to test the ability of anti-miRs in Table F to inhibit the activity of miR-21. Results were compared to a ‘mock’ treatment, in which cells received no anti-miR treatment. The experiment was repeated and results of two experimental replicates are shown in the following Table D, as fold change in luciferase value relative to the mock treatment.

Row | Sequence | reduction of collagen 1A1 expression (in words, FIG. 2A) [1] | reduction of collagen 3A1 expression (in words, FIG. 2B) [1] | ex vivo (liver) N %↓ [2] | ex vivo (liver) % N-1 [2] | ex vivo (liver) % Endo [2] | in vivo (kidney) N-1(%) [3] | in vivo (kidney) N(%) [3] | reduction in urinary albumin to creatinine ratio (in words) ([4]; s.c. 20 mg/kg on days 2, 3, 4, 8) | geometric mean of the urinary albumin to creatinine ratio ([4]; s.c. 20 mg/kg on days 2, 3, 4, 8, urine day 9, PBS control 127, nephrectomy-only 16) | inhibition of miR-21 in the luciferase assay (in words) ([5]; Hela cells) | fold change in luciferase value relative to the mock treatment ([5]; concentration of anti-miR compound 0.2 (unit not given)) | fold change in luciferase value relative to the mock treatment ([5]; concentration of anti-miR compound 0.6 (unit not given)) | fold change in luciferase value relative to the mock treatment ([5]; concentration of anti-miR compound 1.9 (unit not given)) | fold change in luciferase value relative to the mock treatment ([5]; concentration of anti-miR compound 5.6 (unit not given)) | fold change in luciferase value relative to the mock treatment ([5]; concentration of anti-miR compound 16.7 (unit not given)) | fold change in luciferase value relative to the mock treatment ([5]; concentration of anti-miR compound 50.0 (unit not given))
1 | AECSATCSAGTCSTGAUSAAGCSUSAS (ACATCAGTCTGATAAGCTA; modified nucleosides coded in name, code key not given here) [Compound 25221] | reduced collagen 1A1 and collagen 3A1 expression by a statistically significant amount | reduced collagen 1A1 and collagen 3A1 expression by a statistically significant amount | 3% | 0% | 3% | 4 ± 1% | 76 ± 4% | – | – | – | – | – | – | – | – | –
2 | AECSATCSASGTCSUSGAUSASAGCSUSAE (ACATCAGTCTGATAAGCTA; modified nucleosides coded in name, code key not given here) [Compound 25220] | reduced collagen 1A1 and collagen 3A1 expression by a statistically significant amount | reduced collagen 1A1 and collagen 3A1 expression by a statistically significant amount | 3% | 0% | 3% | 16 ± 6% | 67 ± 16% | – | – | – | – | – | – | – | – | –
3 | AECSATCSAGTCSTGAUSAAGCSTAS (ACATCAGTCTGATAAGCTA; modified nucleosides coded in name, code key not given here) [Compound 25923, 25070 variant: 3'-terminal nucleoside is a cEt nucleoside rather than 2'-MOE nucleoside] | reduced collagen 1A1 and collagen 3A1 expression by a statistically significant amount | reduced collagen 1A1 and collagen 3A1 expression by a statistically significant amount | – | – | – | – | – | statistically significant reductions | 31 μgAlb/mgCr | demonstrated inhibition of miR-21 in a dose-dependent manner | 1.06 | 1.01 | 1.10 | 5.18 | 11.34 | 10.81
